In PMC11571207, “Stereorandomized Oncocins with Preserved Ribosome Binding and Antibacterial Activity” (Journal of Medicinal Chemistry, 2024):
Read-outs that look alike come from different tables or passages of the source. No end group written: not given here.

How the values were obtained:
[1] = system: P. aeruginosa PA14 4.18 (pmrB); conditions: for MIC P. aeruginosa PA14 4.18 (pmrB), 12.5% MHB / MIC P. aeruginosa PA14 4.18 (pmrB), full MHB: polymyxin B resistant strain, 16–20 h at 37 °C; for MIC P. aeruginosa PA14 4.18 (pmrB), 12.5% MHB: 12.5% MHB pH 7.4; for MIC P. aeruginosa PA14 4.18 (pmrB), full MHB: full MHB pH 7.4; for MIC P. aeruginosa PA14 4.18: supplement CSV
[2] = system: K. pneumoniae OXA-48; assay: microbe, parasite or virus in culture; conditions: for MIC K. pneumoniae OXA-48, 12.5% MHB / MIC K. pneumoniae OXA-48, full MHB: carbapenem-resistant, 16–20 h at 37 °C; for MIC K. pneumoniae OXA-48, 12.5% MHB: 12.5% MHB pH 7.4; for MIC K. pneumoniae OXA-48, full MHB: full MHB pH 7.4; for MIC K. pneumoniae OXA-48: supplement CSV
In short: (§1)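 Minimal inhibitory concentrations come from broth microdilution in MH medium, with a top peptide concentration of 64 μg/mL halved serially.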

[3] = system: P. aeruginosa ZEM-1A; assay: microbe, parasite or virus in culture; conditions: for MIC P. aeruginosa ZEM-1A, 12.5% MHB / MIC P. aeruginosa ZEM-1A, full MHB: clinical isolate, 16–20 h at 37 °C, cells marked c: single measurement (in duplicates); for MIC P. aeruginosa ZEM-1A, 12.5% MHB: 12.5% MHB pH 7.4; for MIC P. aeruginosa ZEM-1A, full MHB: full MHB pH 7.4; for MIC P. aeruginosa ZEM-1A: supplement CSV
In short: as §1

[4] = system: E. cloacae; assay: microbe, parasite or virus in culture; conditions: for MIC E. cloacae, 12.5% MHB: 12.5% MHB pH 7.4; for MIC E. cloacae, 12.5% MHB / MIC E. cloacae, full MHB: 16–20 h at 37 °C; for MIC E. cloacae, full MHB: full MHB pH 7.4; for MIC E. cloacae: supplement CSV
In short: as §1

[5] = system: P. aeruginosa ZEM9A; assay: microbe, parasite or virus in culture; conditions: for MIC P. aeruginosa ZEM9A, 12.5% MHB / MIC P. aeruginosa ZEM9A, full MHB: clinical isolate, 16–20 h at 37 °C; for MIC P. aeruginosa ZEM9A, 12.5% MHB: 12.5% MHB pH 7.4; for MIC P. aeruginosa ZEM9A, full MHB: full MHB pH 7.4; for MIC P. aeruginosa ZEM9A: supplement CSV
In short: as §1

[6] = system: P. aeruginosa PA14 2P4 (pmrB); assay: microbe, parasite or virus in culture; conditions: for MIC P. aeruginosa PA14 2P4 (pmrB), 12.5% MHB / MIC P. aeruginosa PA14 2P4 (pmrB), full MHB: polymyxin B resistant strain, 16–20 h at 37 °C; for MIC P. aeruginosa PA14 2P4 (pmrB), 12.5% MHB: 12.5% MHB pH 7.4; for MIC P. aeruginosa PA14 2P4 (pmrB), full MHB: full MHB pH 7.4; for MIC P. aeruginosa PA14 2P4: supplement CSV
In short: as §1

[7] = system: P. aeruginosa PA14; assay: microbe, parasite or virus in culture; conditions: for MIC P. aeruginosa PA14, 12.5% MHB: 12.5% MHB pH 7.4; for MIC P. aeruginosa PA14, 12.5% MHB / MIC P. aeruginosa PA14, full MHB: 16–20 h at 37 °C, two different duplicate MIC determinations; for MIC P. aeruginosa PA14, full MHB: full MHB pH 7.4; for MIC P. aeruginosa PA14: supplement CSV
In short: as §1

[8] = system: E. coli BW25113 WT; conditions: Table S1, 16-20 h at 37 °C; for MIC E. coli BW25113 WT, 12.5% MH: 12.5% Müller-Hinton medium pH 7.4; for MIC E. coli BW25113 WT, Full MH: full Müller-Hinton medium pH 7.4
Experimental: (§2) Minimum inhibitory concentration assay
(§3) Antimicrobial activity was assayed against P. aeruginosa PAO1, K. pneumoniae NCTC418, E. coli W3110, A. baumannii ATCC 19606, methicillin-resistant S. aureus COL (MRSA), and for selected peptides on P. aeruginosa PA14 and the polymyxin-B-resistant derivative PA14 2P4, as well as the clinical isolates ZEM-1A and ZEM9A, K. pneumoniae OXA-48, S. aureus Newman, Enterobacter cloacae and Burkholderia cenocepacia. The minimal inhibitory concentration (MIC) was determined by using broth microdilution method. A colo ny of bacteria was picked and grown in Luria-Bertani (LB) medium overnight at 37°C. For E. coli BW25113 sbmA::kan the medium was supplemented with 25 mg/L of kanamycin. The next day, the culture was then regrown in LB medium to log phase (OD600 = 0.6 to 0.8), which lasted approximately 4 h, and diluted to an OD600 of 0.022 in the desired medium. Stock solutions of 1 mg/mL of the samples were prepared in sterilized milliQ water and diluted to the beginning concentration of 64 μg/mL in 300 μL Mueller Hinton (MH)-medium. The diluted samples were added to first well of 96-well microtiter plate (TPP, untreated, Faust Laborbedarf, AG, Schaffhausen) and diluted serially by ½. Finally, 4 μL of the bacterial suspension was inoculated into the sample solutions (150 μL/well) with a final inoculation of about 5∙10^5 CFU/mL. The plates were then incubated at 37°C for 15-18h. For each assay, sterility (broth only) and growth control (broth with bacterial inoculum, without antibiotics) were checked with two columns in the plate. The next day, 15 μL of 3-(4,5-dimethylthiazol-2-yl)-2,5-diphenyltetrazolium bromide (MTT) was added to each well of the plate, such a way that MIC was defined as the lowest concentration of the peptide that inhibited visible growth of the tested […]
(§4) Table S1. Activity of stereorandomized and diastereomeric oncocins against E. coli BW25113 WT and BW25113 sbmA::kan mutant in full and 12.5% MH, at pH 7.4. […]
(§5) a) Minimum inhibitory concentration (MIC, μg/mL) was determined on E. coli BW25113 WT and […]

[9] = system: E. coli BW25113 sbmA::kan; conditions: Table S1, sbmA::kan mutant, 16-20 h at 37 °C; for MIC E. coli BW25113 SbmA-, 12.5% MH: 12.5% Müller-Hinton medium pH 7.4; for MIC E. coli BW25113 SbmA-, Full MH: full Müller-Hinton medium pH 7.4
Experimental: as §2, §3, §4, §5

| Sequence | MIC P. aeruginosa PA14 4.18 (pmrB), 12.5% MHB [1] | MIC P. aeruginosa PA14 4.18 (pmrB), full MHB [1] | MIC P. aeruginosa PA14 4.18 ([1]; 12.5% MH pH 7.4) | MIC P. aeruginosa PA14 4.18 ([1]; full MH pH 7.4) | MIC K. pneumoniae OXA-48, 12.5% MHB [2] | MIC K. pneumoniae OXA-48, full MHB [2] | MIC K. pneumoniae OXA-48 ([2]; 12.5% MH pH 7.4) | MIC K. pneumoniae OXA-48 ([2]; full MH pH 7.4) | MIC P. aeruginosa ZEM-1A, 12.5% MHB [3] | MIC P. aeruginosa ZEM-1A, full MHB [3] | MIC P. aeruginosa ZEM-1A ([3]; 12.5% MH pH 7.4) | MIC P. aeruginosa ZEM-1A ([3]; full MH pH 7.4) | MIC E. cloacae, 12.5% MHB [4] | MIC E. cloacae, full MHB [4] | MIC E. cloacae ([4]; 12.5% MH pH 7.4) | MIC E. cloacae ([4]; full MH pH 7.4) | MIC P. aeruginosa ZEM9A, 12.5% MHB [5] | MIC P. aeruginosa ZEM9A, full MHB [5] | MIC P. aeruginosa ZEM9A ([5]; 12.5% MH pH 7.4) | MIC P. aeruginosa ZEM9A ([5]; full MH pH 7.4) | further results |
| --- | --- | --- | --- | --- | --- | --- | --- | --- | --- | --- | --- | --- | --- | --- | --- | --- | --- | --- | --- | --- | --- |
| VDKPPYLPRPRPPRRIYNR [sr14Nterm-Onc] (VDKPPYLPRPRPPRRIYNR-NH2; also: residues 1-14 stereorandomized (1:1 L/D mixture)) | 32 µg/mL | > 64 µg/mL | 32 µg/mL | >64 µg/mL | >64/>64 μg/mL | >64/>64 μg/mL | >64 µg/mL | >64 µg/mL | >64/>64 ^c μg/mL | >64/>64 ^c μg/mL | >64 µg/mL | >64 µg/mL | 8 µg/mL | > 64 µg/mL | 8 µg/mL | >64 µg/mL | >64/64 μg/mL | >64/64 μg/mL | 64 µg/mL | >64 µg/mL | MIC P. aeruginosa PA14 2P4 (pmrB), 12.5% MHB [6]: 16 µg/mL; MIC P. aeruginosa PA14 2P4 (pmrB), full MHB [6]: > 64 µg/mL; MIC P. aeruginosa PA14 2P4 ([6]; 12.5% MH pH 7.4): 16 µg/mL; MIC P. aeruginosa PA14 2P4 ([6]; full MH pH 7.4): >64 µg/mL; MIC P. aeruginosa PA14, 12.5% MHB [7]: >64/64 μg/mL; MIC P. aeruginosa PA14, full MHB [7]: >64/64 μg/mL; MIC P. aeruginosa PA14 ([7]; 12.5% MH pH 7.4): 64 µg/mL; MIC P. aeruginosa PA14 ([7]; full MH pH 7.4): >64 µg/mL; MIC E. coli BW25113 WT, 12.5% MH [8]: 16 µg/mL; MIC E. coli BW25113 WT, Full MH [8]: > 64 µg/mL; MIC E. coli BW25113 SbmA-, 12.5% MH [9]: 16 µg/mL; MIC E. coli BW25113 SbmA-, Full MH [9]: > 64 µg/mL |
| VDKPPYLPRPRPPRRIYNR [sr-Onc] (VDKPPYLPRPRPPRRIYNR-NH2; also: all 19 residues stereorandomized (1:1 L/D mixture)) | 32 µg/mL | > 64 µg/mL | 32 µg/mL | >64 µg/mL | >64/>64 μg/mL | >64/>64 μg/mL | >64 µg/mL | >64 µg/mL | >64/64 ^c μg/mL | >64/64 ^c μg/mL | 64 µg/mL | >64 µg/mL | 8 µg/mL | > 64 µg/mL | 8 µg/mL | >64 µg/mL | 32 µg/mL | > 64 µg/mL | 32 µg/mL | >64 µg/mL | MIC P. aeruginosa PA14 2P4 (pmrB), 12.5% MHB [6]: 16 µg/mL; MIC P. aeruginosa PA14 2P4 (pmrB), full MHB [6]: > 64 µg/mL; MIC P. aeruginosa PA14 2P4 ([6]; 12.5% MH pH 7.4): 16 µg/mL; MIC P. aeruginosa PA14 2P4 ([6]; full MH pH 7.4): >64 µg/mL; MIC P. aeruginosa PA14, 12.5% MHB [7]: 32 µg/mL; MIC P. aeruginosa PA14, full MHB [7]: > 64 µg/mL; MIC P. aeruginosa PA14 ([7]; 12.5% MH pH 7.4): 32 µg/mL; MIC P. aeruginosa PA14 ([7]; full MH pH 7.4): >64 µg/mL; MIC E. coli BW25113 WT, 12.5% MH [8]: 8 µg/mL; MIC E. coli BW25113 WT, Full MH [8]: > 64 µg/mL; MIC E. coli BW25113 SbmA-, 12.5% MH [9]: 8 to 16 µg/mL; MIC E. coli BW25113 SbmA-, Full MH [9]: > 64 µg/mL |
